This is an account of results in patent US20220146526A1, “METHOD FOR EVALUATING SAMPLE, ANALYSIS METHOD, METHOD FOR DETECTING DEGRADED SAMPLE, MARKER FOR DETECTING DEGRADED BLOOD PLASMA SAMPLE, AND MARKER FOR DETECTING DEGRADED SERUM SAMPLE” (SHIMADZU CORPORATION, priority 2019, published 2022).

Structures are written as SMILES.

Common to all, as to format: physicochemical, human
Data set [1] is described as follows: LC/MS of serum sample: time from blood collection to centrifugation (Table J). The following applies: for Increase or decrease / Time when compound is affected: serum sample, LC/MS; for Increase or decrease: detection intensity vs 15 minutes from blood collection to centrifugation; for Time when compound is affected: time from blood collection to centrifugation, detection intensity changed by 30% or more vs 15 minutes. The protocol: (§1) After standing, the blood sample was subjected to centrifugation under a condition of room temperature, 3500 rpm, and 5 minutes. […] After centrifugation, the blood-collecting vessel was left to stand at room temperature, and the serum was isolated during this time. Here, in order to investigate how the detection intensity of molecules contained in the sample was affected in cases where the time during which the blood-collecting vessel was left at room temperature was set to 1 hour and 6 hours as compared to that in a case where the time was set to 30 minutes, preparations were performed under the respective conditions of 30 minutes, 1 hour, and 6 hours. The obtained serum sample was frozen and stored. Here, in order to investigate how the detection intensity of molecules contained in the sample was affected in cases where freezing and thawing was performed 4 times, 6 times, and 10 times after freezing as compared to that in a case where freezing and thawing was performed 2 times after freezing, freezing and thawing was performed under the respective conditions of 2, 4, 6, and 10 times.
(§2) Frozen blood plasma samples and serum samples were subjected to GC/MS or LC/MS. In GC/MS, the blood plasma samples and serum samples were subjected to methoxymation and trimethylsilylation and then introduced to GC-MS.
(§3) Analysis column: Discovery HS F5-3 (inner diameter of 2.1 mm, length of 150 mm, film thickness of 3 μm) (Sigma-Aldrich)
(§4) Column temperature: 40° C.
(§5) (A) 0.1% formic acid (dissolved in water)
(§6) (B) 0.1% formic acid (dissolved in acetonitrile)
(§7) Flow velocity: 0.25 mL/min
(§8) Ionization method: electrospray
(§9) Temperature: • Desolvation Line (DL) temperature: 250° C. • Heat block temperature: 400° C. • Interface temperature: 300° C.
(§10) Gas flow rate: • Nebulizer gas flow rate: 3.0 L/min • Drying gas flow rate: 10.0 L/min • Heating gas flow rate: 10.0 L/min
(§11) Mode: multiple reaction monitoring (MRM)
The rate of increase or decrease in Table J is the value of detection intensity relative to 1 that is the detection intensity in a case where the time from blood collection to centrifugation is set to 15 minutes.

Data set [2] can be described thus: LC/MS of serum sample: time from centrifugation to isolation (Table K). The arrangement: key to Rate of increase or decrease: detection intensity relative to the 30-minute value set as 1. The following applies: for Increase or decrease / Time when compound is affected: serum sample, LC/MS; for Increase or decrease: detection intensity vs 30 minutes from centrifugation to isolation; for Time when compound is affected: time from centrifugation to isolation, detection intensity changed by 30% or more vs 30 minutes. The procedure:
as §1, §2, §3, §4, §5, §6, §7, §8, §9, §10, §11
The rate of increase or decrease in Table K is the value of detection intensity relative to 1 that is the detection intensity in a case where the time from centrifugation to isolation is set to 30 minutes.

A short description of data set [3]: LC/MS of serum sample: number of times of freezing and thawing (Table M). Set-up: key to Rate of increase or decrease: detection intensity relative to 1 at 2 freeze-thaw cycles. Particulars: for Rate of increase or decrease: 4 times of freezing and thawing, detection intensity relative to 1 at 2 times; for Number of times when compound is affected / Increase or decrease: serum sample, LC/MS; for Number of times when compound is affected: detection intensity changed by 30% or more vs 2 times of freezing and thawing; for Increase or decrease: detection intensity vs 2 times of freezing and thawing. The method in brief:
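Values are detection intensities relative to serum thawed twice, versus 4, 6 or 10 freeze-thaw cycles. Serum came from blood spun at room temperature, 3500 rpm for 5 minutes. Analysis: electrospray LC/MS in MRM mode, Discovery HS F5-3 column, 40° C, 0.1% formic acid in water and acetonitrile.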

Data set [4] is described as follows: LC/MS of blood plasma sample: time from blood collection to centrifugation (Table D). The following applies: for Increase or decrease: detection intensity, after 12 hours vs 15 minutes; for Rate of increase or decrease (second value, decrease) / Rate of increase or decrease (first value, increase): different from individual to individual, relative to 1 at 15 minutes, collection to centrifugation; for Rate of increase or decrease (second value, decrease): individuals with decrease; for Rate of increase or decrease (first value, increase): individuals with increase. The method in brief:
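Detection intensities are expressed relative to samples centrifuged 15 min after collection (=1), measured by electrospray LC/MS in MRM mode (Discovery HS F5-3, 40 °C, formic acid water/acetonitrile gradient at 0.25 mL/min). EDTA blood from a healthy donor was held at 4 °C, centrifuged at 4 °C, 3000 rpm, 15 min, and plasma frozen.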

Data set [5] in a line: LC/MS of blood plasma sample: number of times of freezing and thawing (Table F). Particulars: for Rate of increase or decrease: detection intensity relative to 1 at 2 times; for Increase or decrease: detection intensity. The protocol:
At room temperature, 5 mL of blood from a healthy subject was taken into a blood-collecting vessel containing EDTA, and the blood-collecting vessel was inverted for mixing, then cooled, and allowed to stand at 4° C. Here, in order to investigate how the detection intensity of molecules contained in the sample was affected in a case where the time to cooling was set to 5 minutes or more as compared to that in a case where the time to cooling was set to 1 minute or less, preparations were performed under both the former condition and the latter condition. After standing, the blood sample was subjected to centrifugation under a condition of 4° C., 3000 rpm, and 15 minutes. […] After centrifugation, the blood-collecting vessel was left to stand at room temperature for 30 minutes, and the blood plasma was isolated during this 30 minutes. The obtained blood plasma sample was frozen and stored. Here, in order to investigate how the detection intensity of molecules contained in the sample was affected in cases where freezing and thawing was performed 4 times, 6 times, and 10 times after freezing as compared to that in a case where freezing and thawing was performed 2 times after freezing, freezing and thawing was performed under the respective conditions of 2, 4, 6, and 10 times.
as §2, §3, §4, §5, §6, §7, §8, §9, §10, §11
The rate of increase or decrease in Table F is the value of detection intensity relative to 1 that is the detection intensity in a case where the number of times of freezing and thawing is set to 2 times.

Data set [6] in a line: GC/MS of blood plasma sample: time from blood collection to centrifugation (Table A). The method in brief: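 Read-out is MRM detection intensity by electron-ionization GC/MS on a BPX5 column after methoxymation and trimethylsilylation, expressed relative to a 15-minute collection-to-centrifugation interval. Plasma was prepared from EDTA blood held at 4° C and spun at 4° C, 3000 rpm for 15 minutes, then frozen.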

A short description of data set [7]: GC/MS of blood plasma sample: time from blood collection to cooling of blood (Table B). The arrangement: key to Rate of increase or decrease / Rate of increase or decrease (first value, increase): detection intensity relative to 1 at cooling time ≤1 min. The gist of the method: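 Blood drawn at room temperature into EDTA tubes, mixed, then cooled at 4° C. within 1 minute or less versus 5 minutes or more before centrifugation (4° C., 3000 rpm, 15 minutes). Plasma was frozen, methoxymated and trimethylsilylated, and analysed by EI GC/MS in MRM mode. Values are detection intensity relative to the ≤1 minute condition.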

Data set [8] can be described thus: GC/MS of blood plasma sample: number of times of freezing and thawing (Table C). The method in brief: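 Values express detection intensity as a ratio to the 2-cycle freeze-thaw sample (=1), compared with 4, 6 and 10 cycles. Healthy-donor EDTA plasma, cooled at ≤1 min or ≥5 min, spun at 4 °C, 3000 rpm, 15 min. Derivatised by methoxymation/trimethylsilylation; GC-MS/MS in MRM mode with electron ionization.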

The mark [9] stands for this setting: after 4 hours from blood collection to centrifugation, detection intensity relative to 1 at 15 minutes.
The mark [10] stands for this setting: after 1 hour, relative to 1 at 30 minutes, different from individual to individual, second value (decrease).
Setting [11] is: blood collection to centrifugation.

`NCCC(=O)N[C@@H](Cc1cnc[nH]1)C(=O)O` [Carnosine, carnosine]: the “Rate of increase or decrease” value in data set [1] (setting [9]) is recorded as 2.83; in data set [2] (after 1 hour, relative to 1 at 30 minutes, different from individual to individual, first value (increase)) it was 1.41; in data set [2] (setting [10]), 0.56; in data set [3], 0.59. Besides, the values for the Increase or decrease entry in data set [1], in data set [2] and in data set [3] were “Increase”, “Different from individual” and “Decrease”, respectively. In addition, the results for the “Time when compound is affected” value in data set [1] and in data set [2] were “After 4 hours” and “After 1 hour hours”, respectively. The “Number of times when compound is affected” value (“Number of times” below) in data set [3] amounted to 4 times.

Turning to `N[C@@H](CSSC[C@H](N)C(=O)O)C(=O)O` [Cystine], the “Rate of increase or decrease” value is 0.45 in data set [4] (detection intensity relative to 1 at 15 minutes, blood collection to centrifugation, after 12 hours); 0.54 in data set [5] (freezing and thawing 10 times); 0.67 in data set [2] (after 1 hour from centrifugation to isolation, detection intensity relative to 1 at 30 minutes); 1.56 in data set [3]. Also, the Increase or decrease result in data set [4] (setting [11]) is listed as “Decrease”; in data set [5] (freezing and thawing 10 times vs 2 times), “Decrease”; in data set [2], “Decrease”; in data set [3], “Increase”. Moreover, the “Time when compound is affected” value in data set [2] is on record as “After 1 hour hours”. In addition, the “Number of times” value in data set [3] turned out to be 4 times.

Take `Nc1nc2c(ncn2[C@@H]2O[C@@H]3COP(=O)(O)O[C@H]3[C@H]2O)c(=O)[nH]1` [Guanosine 3′,5′-cyclic monophosphate, guanosine 3′,5′-cyclic monophosphate]: the “Rate of increase or decrease” value in data set [1] (after 4 hours, relative to 1 at 15 minutes, different from individual to individual, first value (increase)) was 3.62; in data set [1] (after 4 hours, relative to 1 at 15 minutes, different from individual to individual, second value (decrease)), 0.58; in data set [2] (setting [10]) it was 0.46; in data set [3], 1.47. Also, the Increase or decrease result is recorded as “Different from individual” in data set [1], “Different from individual” in data set [2] and “Increase” in data set [3]. Also, the “Time when compound is affected” value in data set [1] is recorded as “After 4 hours”; in data set [2] it was “After 1 hour hours”. Moreover, the “Number of times” value in data set [3] was determined as 4 times.

Turning to `C[S+]([O-])CC[C@H](N)C(=O)O` (stereo partly shown) [Methionine sulfoxide], the Increase or decrease result was “Different from individual” in data set [4] (setting [11]), “Increase” in data set [1], “Increase” in data set [2] and “Increase” in data set [3]. Further, in data set [4] (after 12 hours), the “Rate of increase or decrease (second value, decrease)” value is on record as 0.54. In addition, the “Rate of increase or decrease (first value, increase)” value in data set [4] (after 12 hours) was 1.36. For the same compound, the “Rate of increase or decrease” value in data set [1] (after 6 hours from blood collection to centrifugation, detection intensity relative to 1 at 15 minutes) stood at 1.65; in data set [2] (after 6 hours from centrifugation to isolation, detection intensity relative to 1 at 30 minutes), 1.77; in data set [3], 1.55. In addition, the “Time when compound is affected” value in data set [1] and in data set [2] was “After 6 hours” each time. In addition, the “Number of times” value in data set [3] came to 4 times.

Consider `O=c1ccn([C@@H]2O[C@H](CO)[C@@H](O)[C@H]2O)c(=O)[nH]1` [Uridine], for which the Increase or decrease result in data set [6] (detection intensity, blood collection to centrifugation, after 4 hours vs 15 minutes) is recorded as “Different from individual”; in data set [7] (detection intensity, blood collection to cooling 5 minutes or more vs 1 minute or less), “Different from individual”; in data set [8] (detection intensity, freezing and thawing 6 times vs 2 times), “Decrease”; in data set [4] (setting [11]), “Different from individual”; in data set [5] (freezing and thawing 6 times vs 2 times), “Increase”; in data set [1], “Increase”. Besides, the Increase or decrease result in data set [3] is listed as “Decrease”. For the same compound, the “Rate of increase or decrease (second value, decrease)” value amounted to 0.48 in data set [6] (different from individual to individual, individuals with decrease, relative to 1 at 15 minutes, collection to centrifugation, after 4 hours); 0.64 in data set [7] (different from individual to individual, individuals with decrease, relative to 1 at 1 minute or less, collection to cooling 5 minutes); 0.60 in data set [4] (after 12 hours). Besides, the “Rate of increase or decrease (first value, increase)” value in data set [6] (different from individual to individual, individuals with increase, relative to 1 at 15 minutes, collection to centrifugation, after 4 hours) was 1.48; in data set [7] (different from individual to individual, individuals with increase, relative to 1 at 1 minute or less, collection to cooling 5 minutes), 2.62; in data set [4] (after 12 hours), 1.67. The “Rate of increase or decrease” value in data set [8] (detection intensity relative to 1 at 2 times, freezing and thawing 6 times) turned out to be 0.69; in data set [5] (freezing and thawing 6 times) it was 1.31; in data set [1] (setting [9]) it was 1.42; in data set [3], 0.68. Moreover, the “Time when compound is affected” value in data set [1] is reported as “After 4 hours”. Moreover, the “Number of times” value in data set [3] is 4 times.
